{
  "source": "paper PMC12466602",
  "about": "“Novel Hybrid Peptide DEFB126 (1-39)-TP5 Inhibits LPS-Induced Inflammatory Responses and Oxidative Stress by Neutralizing LPS and Blocking the TLR4/MD2-NFκB Signaling Axis” (Antioxidants, 2025)",
  "molecules": {"B1": {"name": "hybrid peptide DEFB126 (1-39)-TP5 (peptide)", "peptide": "NWYVKKCLNDVGICKKKCKPEEMHVKNGWAMCGKQRDCCRKDVY", "notes": "DEFB126 (1-39): residues 21-59 of human β-defensin 126 (111 amino acids); thymopentin (TP5), the core active fragment of thymopoietin, full-length TP5; whether disulfide bonds form is left open by the authors; also called DTP; DTP peptide; source: synthetic peptide (KangLong Biochemistry, 95% purity)"}},
  "key": {"RAW264.7 macrophages": {"system": "RAW264.7 macrophages", "test": "CCK-8 cell viability assay", "conditions": "24 h; for cell survival rate: RAW264.7, 10 μg/mL peptide, CCK-8, OD450", "quoted_text": "RAW 264.7 cells were maintained in DMEM medium containing 10% (v/v) fetal bovine serum and 1% (v/v) penicillin-streptomycin at 37 °C, 5% CO2.\nRAW264.7 cells (3 × 10^4 cells/mL) were plated in 96-well plates in 100 μL DMEM overnight and then cultured in fresh medium containing a 2-fold concentration of peptide for another 24 h. Add 10 μL of CCK-8 solution to each well and incubate for 4 h away from light. Then, the optical density at 450 nm was measured using a microplate reader. Cell viability was determined byCell viability (%) = (OD450 (sample)/OD450 (control)) × 100%(1) where OD450 (sample) is the absorbance at 450 nm of the cells with peptides treated and OD450 (control) is the absorbance at 450 nm of the cells without peptides treated."}, "in vitro": {"test": "in vitro", "conditions": "rat, plasma", "quoted_text": "(§1) The above peptide solutions were incubated at 37 °C for varying lengths of time and then immediately transferred to pre-cooled test tubes containing 1 mL of acidic acetone (hydrochloric acid/acetone/H2O, v/v/v 1:40:5) to terminate the reaction. The concentration of the hydrochloric acid solution before dilution is 50 mM. The precipitate was subsequently separated by centrifugation at 20,000× g for 20 min at 4 °C. The obtained precipitates were dried in vacuo and then dissolved in 0.5 mL of 1 M acetic acid. Peptide analysis was conducted according to the protocol for the study of TP5 using HPLC [2]. Peptide half-lives were obtained by fitting a linear regression model based on logarithmic concentration-time."}, "[1]": {"test": "LPS neutralization, Chromogenic End-point Tachypleus Amebocyte Lysate (CE TAL) assay", "type": "biochemical, E. coli", "conditions": "LPS 1.0 U/mL, peptide 0 to 128 μg/mL, 15 min at 37 °C, OD540; mean ± SD of 3 independent experiments", "method": "The LPS-neutralizing ability of the peptides was assessed through a quantitative Chromogenic End-point Tachypleus Amebocyte Lysate (CE TAL) assay (Xiamen Bioendo Technology Co., Xiamen, China). LPS (final concentration 1.0 U/mL; E. coli, O55:B5) was incubated with different concentrations of the peptides (final concentration 0 to 128 μg/mL) for 15 min at 37 °C. Then, the mixtures were incubated with TAL assay reagent at 37 °C for 6 min, and the optical density at 540 nm was measured."}, "RAW264.7 cells": {"system": "RAW264.7 cells", "test": "ROS generation (DCFH2-DA, fluorescence microscopy and flow cytometry)", "type": "cell-based", "conditions": "RAW264.7, LPS 100 ng/mL 1 h, then DTP 12 h", "method": "RAW264.7 cells (1 × 10^5 cells/mL cell density) were incubated with LPS (100 ng/mL) at 37 °C for 1 h. After that, cells were treated with DTP at 37 °C for 12 h. The cells were then stained with 5 μM DCFH2-DA for 30 min at 37 °C in the dark. The cells were then washed extensively with PBS before analysis by fluorescence microscope and flow cytometry."}, "[2]": {"test": "Ex vivo stability in plasma (HPLC)", "conditions": "rat plasma, peptide 10 µg/mL, 37 °C, linear regression of log concentration-time, mean ± SD of 3 biological replicates", "quoted_text": "as §1"}, "LPS-induced sepsis model": {"system": "LPS-induced sepsis model", "test": "Murine LPS-induced sepsis / liver injury model", "type": "in vivo, C57BL/6 mice", "conditions": "mice", "method": "Male C57BL/6 mice (6–8 weeks of age) were purchased from Charles River (Beijing, China). During the experiments, mice were housed in a specific-pathogen-free (SPF) environment with a temperature of 22 ± 1 °C and a relative humidity of 55 ± 10%. All the animal experiments were conducted with the approval of the Animal Care and Use Committee of China Agricultural University.\nThe mice were randomly divided into five groups of 12: control, LPS (E. coli O111: B4, Sigma-Aldrich, St. Louis, MO, USA), DEFB126 + LPS, TP5 + LPS, and DTP + LPS. The corresponding peptide (10 mg/kg) was injected intraperitoneally during the pretreatment stage. The control group was synchronized with the LPS group by injecting an equal amount of saline.\nDuring the first 7 days of the experiment, each group received the above treatments once a day. On day 7, the LPS model group and the peptide pretreatment groups (DEFB126 + LPS, TP5 + LPS, and DTP + LPS) were injected intraperitoneally with 20 mg/kg of LPS to establish a sepsis model. The control group was injected with an equal volume of saline. Sixteen hours after the LPS injection, the mice were euthanized, and liver tissues and blood samples were collected. The serum was then separated by centrifugation and stored at −80 °C for measurement.\nMouse liver tissues were fixed with 4% paraformaldehyde, embedded in paraffin, and sliced continuously on a rotary slicer (Leica, RM2235, Nußloch, Germany) at a thickness of 5 μm. After dewaxing and rehydration, the tissues were subjected to Hematoxylin-Eosin (H&E) contrast staining. LPS-induced liver injury was evaluated according to a previous study. The liver injury score was graded on a 0- to 3-point scale: 0, no injury; 1, mild injury with cytoplasmic vacuolation; 2, moderate to severe injury consisting of extensive loss of intercellular borders and nuclear pyknosis; and 3, severe necrosis consisting of liver hemorrhage and neutrophil infiltration.\nThe levels of tumor necrosis factor (TNF)-α, interleukin (IL)-6, and IL-1β in the serum of mice were detected using commercial ELISA kits (eBioscience, San Diego, CA, USA). Commercial reagent kits (Nanjing Jiancheng Bioengineering Institute, Nanjing, China) were used to detect the levels of serum alanine amino transferase (ALT) and aspartate amino transferase (AST)."}, "[3]": {"system": "phosphorylation of IKK-β, IκB-α and NF-κB", "test": "Western blot of NF-κB signaling pathway", "type": "cell-based", "conditions": "LPS-stimulated", "method": "Samples were fractionated into cytoplasmic and nuclear components using the NR-PER Nuclear and Cytoplasmic Protein Extraction Kit (Thermo Fisher Scientific Inc., Waltham, MA, USA). Protein levels in each fraction were determined via a bicinchoninic acid (BCA) assay (KeyGEN Biotech, Nanjing, China). Subsequently, protein fractions were separated by 10% SDS-polyacrylamide gel electrophoresis and transferred to methanol-activated PVDF membranes (Bio-Rad, Hercules, CA, USA). After membrane transfer, the membranes were blocked with 5% skimmed milk, followed by incubation with phosphorylated antibodies: p-IKK-β, p-IкB-α, p-NF-кB (p-p65), and GAPDH (Santa Cruz), with shaking overnight at 4 °C. After TBST washing, the membranes were incubated with HRP-labeled species-matched secondary antibody (HuaAn Biologicals, Hangzhou, China) for 60 min at room temperature. The density of specific proteins was quantified using the ChemiDoc MP imaging system (Bio-Rad, Hercules, CA, USA)."}, "[4]": {"biological_target": "Toll-like receptor 4/myeloid differentiation factor 2 (TLR4/MD-2) complex (UniProt Q9QUK6 26-835; Q9JHF9 19-160, The source, species and construct of the SPR protein are not stated. Mouse is inferred from the docking receptor (PDB 2Z64) and the mouse models. Limits by convention: TLR4 extracellular domain and ma)", "sequence (Q9QUK6 26-835, chain 1 of 2)": "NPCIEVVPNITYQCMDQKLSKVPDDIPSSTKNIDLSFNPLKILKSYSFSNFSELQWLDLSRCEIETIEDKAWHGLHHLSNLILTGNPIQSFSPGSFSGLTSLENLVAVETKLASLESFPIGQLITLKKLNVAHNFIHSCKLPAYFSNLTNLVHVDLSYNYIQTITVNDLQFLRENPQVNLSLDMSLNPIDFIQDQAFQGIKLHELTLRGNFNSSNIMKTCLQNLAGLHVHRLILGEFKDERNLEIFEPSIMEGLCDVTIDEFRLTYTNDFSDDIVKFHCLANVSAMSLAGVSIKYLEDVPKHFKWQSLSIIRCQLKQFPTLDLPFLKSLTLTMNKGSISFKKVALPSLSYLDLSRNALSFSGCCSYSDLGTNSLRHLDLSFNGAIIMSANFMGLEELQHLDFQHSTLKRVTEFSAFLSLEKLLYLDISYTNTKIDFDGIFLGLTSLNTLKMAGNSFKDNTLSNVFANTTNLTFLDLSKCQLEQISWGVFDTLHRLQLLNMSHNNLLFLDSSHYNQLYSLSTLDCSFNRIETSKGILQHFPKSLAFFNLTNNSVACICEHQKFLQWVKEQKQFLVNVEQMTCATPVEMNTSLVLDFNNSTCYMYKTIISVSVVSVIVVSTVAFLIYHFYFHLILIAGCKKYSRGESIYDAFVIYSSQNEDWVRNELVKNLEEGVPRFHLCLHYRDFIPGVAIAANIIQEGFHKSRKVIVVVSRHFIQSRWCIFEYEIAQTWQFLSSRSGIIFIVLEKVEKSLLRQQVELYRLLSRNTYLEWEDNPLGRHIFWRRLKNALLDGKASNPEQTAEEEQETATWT", "sequence (Q9JHF9 19-160, chain 2 of 2)": "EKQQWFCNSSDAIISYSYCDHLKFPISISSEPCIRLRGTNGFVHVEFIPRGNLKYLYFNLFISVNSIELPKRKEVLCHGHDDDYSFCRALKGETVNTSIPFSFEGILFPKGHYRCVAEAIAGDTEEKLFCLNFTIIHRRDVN", "test": "SPR; Biacore X100, CM5 chip, amine coupling; running buffer PBS with 0.05% Tween 20, 30 μL/min; peptide gradient 0, 1.25, 2.5, 5 and 10 mM as printed; 1:1 binding model; legend and results: TLR4/MD-2 immobilised and DTP flowed over (the methods say DTP was immobilised)", "conditions": "both partners purified"}, "[5]": {"conditions": "ELISA, peptide 10 mg/kg i.p. pretreatment, LPS, 16 h"}, "[6]": {"conditions": "peptide 10 mg/kg i.p. once daily pretreatment, then LPS i.p., 16 h after LPS"}, "[7]": {"conditions": "peptide 10 mg/kg i.p. pretreatment, LPS, 16 h"}},
  "note": "Marks after values point to notes of the source that are not given here. Where no end group is shown, it is not given here.",
  "data": [
    {"molecule": "NWYVKKCLNDVGICKKKCKPEEMHVKNGWAMCGKQRDCCVPAD (cysteines drawn unpaired) [DEFB126]", "values": [
      {"measurement": "cell survival rate", "setting": "RAW264.7 macrophages", "value": "higher than 80%"},
      {"measurement": "half-life at 10 µg/mL", "setting": "in vitro", "value": "5.41 ± 0.885", "unit": "h"}
    ]},
    {"molecule": "NWYVKKCLNDVGICKKKCKPEEMHVKNGWAMCGKQRDCCRKDVY (cysteines drawn unpaired) [DTP]", "values": [
      {"measurement": "50% neutralization rate value", "setting": "[1]", "value": "approximately 11.58 ± 2.07 μg/mL"},
      {"measurement": "cell survival rate", "setting": "RAW264.7 macrophages", "value": "higher than 80%"},
      {"measurement": "cytotoxicity compared with parental peptides", "setting": "RAW264.7 macrophages; RAW264.7, 2-fold series of concentrations, CCK-8", "value": "significantly lower than DEFB126 and TP5"},
      {"measurement": "LPS-induced ROS generation", "setting": "RAW264.7 cells", "value": "remarkably attenuated"},
      {"measurement": "t1/2 in plasma", "setting": "[2]", "value": "349 ± 69.17 ^a min"},
      {"measurement": "serum IL-1β level", "setting": "LPS-induced sepsis model; [5]", "value": "significantly decreased"},
      {"measurement": "serum IL-6 level", "setting": "LPS-induced sepsis model; [5]", "value": "significantly decreased"},
      {"measurement": "serum TNF-α level", "setting": "LPS-induced sepsis model; [5]", "value": "significantly decreased"},
      {"measurement": "liver injury score", "setting": "LPS-induced sepsis model; H&E, 0- to 3-point scale, peptide 10 mg/kg i.p. pretreatment, LPS, 16 h", "value": "significantly lower liver injury score than the LPS-treated, TP5-pretreated, and DEFB126-pretreated groups"},
      {"measurement": "serum ALT level", "setting": "LPS-induced sepsis model; [6]", "value": "markedly lower than those in the TP5-pretreated group and DEFB126-pretreated group"},
      {"measurement": "serum AST level", "setting": "LPS-induced sepsis model; [6]", "value": "markedly lower than those in the TP5-pretreated group and DEFB126-pretreated group"},
      {"measurement": "liver CAT activity", "setting": "LPS-induced sepsis model; [7]", "value": "significantly reversed these effects"},
      {"measurement": "liver GSH-Px activity", "setting": "LPS-induced sepsis model; [7]", "value": "significantly reversed these effects"},
      {"measurement": "liver SOD activity", "setting": "LPS-induced sepsis model; [7]", "value": "significantly reversed these effects"},
      {"measurement": "LPS-induced phosphorylation of IKK-β, IκB-α and NF-κB", "setting": "[3]", "value": "significantly inhibited"}
    ]},
    {"molecule": "B1", "values": [
      {"measurement": "Kd", "setting": "[4]", "value": 2300, "unit": "nM"}
    ]}
  ]
}
